In patent US4596804A, “Dibenz[b,e]oxepin compounds” (Kyowa Hakko Kogyo Co., Ltd., priority 1983, dated 1986):
Structures can show the parent of a compound that is named as a salt.

What was measured:
[1] = system: passive cutaneous anaphylaxis (PCA) reaction; test: 48-hour homologous PCA (passive cutaneous anaphylaxis) test in rats, antiallergic activity; assay type: in vivo, male Wistar strain rats; conditions: minimum dose with at least one positive among three rats; for minimal effective dose: Rattus norvegicus, po, read-out: Antiallergic Activity, MED (minimum effective dose); for Antiallergic Activity, MED (minimum effective dose): oral
Method: The 48-hour homologous PCA (passive cutaneous anaphylaxis) test was employed. As test animals, male Wistar strain rats weighing 180 to 220 g were used for preparation of antiserum and those weighing 120 to 140 g for PCA test.
(A) Preparation of rat antiserum to EWA
Rat antiserum to egg white albumin (EWA) was prepared by the method of Stotland Share [Canad. J. Physiol. Pharmacol. 52, 1114 (1974)] as follows. One mg of EWA was mixed with 20 mg of aluminum hydroxide gel and 0.5 ml of pertussis/diphtheria/tetanus mixed vaccine, and the mixture was subcutaneously injected to each rat through the sole in four portions. After 14 days, blood samples were taken from the carotid artery, and the serum was separated and stored at -80° C. The 48-hour homologous PCA titer of this antiserum was 1:32.
(B) 48-hour homologous PCA test in rats
Three rats for each group were employed for 48-hour homologous PCA test. Rats were passively sensitized by injecting intradermally at the two spots on the shaved back 0.05 ml portions of the antiserum which was diluted 8-fold with physiological saline. After 47 hours, test compounds or the solutions thereof (physiological saline solution or CMC solution) were orally administered to the rats, and after one hour, the animals were injected intraveneously to tail vein 0.5 ml/100 g body weight of saline containing 2 mg of EWA, together with 1% Evans blue. Thirty minutes after antigen challenge, the rats were sacrificed by exanguination, and the skin was cut out, followed by the evaluation of the intensity of PCA reaction by expressing the amounts of dye leaked. The amounts of dye leaked from the blue-stained section were measured by the metod of Katayama, et al [Microbiol. Immunol. 22, 89 (1978)] as follows. A portion of the blue-stained section cut out with scissors was placed in a test tube containing 1 ml of 1N KOH solution, and incubated at 37° C. for 24 hours. 9 ml of a mixture of 0.6N phosphoric acid and acetone (5:13) was added, and the mixture was shaken and subjected to centrifugation at 2500 rpm for 10 minutes. Then, the absorbance of the supernatant liquid at 620 mμ was measured, and the amount of eluted dye was determined by using a calibration curve previously prepared. The average of the measurements for the two positions was taken as the value for each individual, and the inhibition rate for each rat was calculated from the following formula: [formula]
PCA inhibiting activity was evaluated as positive when the inhibition rate was 50% or higher, and the minimum dose required to achieve positive result for at least one among the three rats in each group was taken as the minimum effective dose (MED).

[2] = system: male dd strain mice; test: Acute toxicity (minimum lethal dose); assay type: in vivo; conditions: mortality seven days after administration; for Acute Toxicity (MLD) ip: intraperitoneal
Method: The present compound was administered orally (p.o. 300 mg/kg) or intraperitoneally (i.p. 100 mg/kg) to several groups of male dd strain mice weighing 19 to 21 g (each group consisting of three mice), and MLD (minimum lethal dose) was determined by observing the mortality seven days after administration.

| SMILES | minimal effective dose [1] [mg/kg] | Acute Toxicity (MLD) ip [2] [mg/kg] | Acute Toxicity (MLD) PO [2] [mg/kg] | Antiallergic Activity, MED (minimum effective dose) [1] [mg/kg] |
| --- | --- | --- | --- | --- |
| CN1CCN(C2c3ccccc3COc3ccc(C(N)=O)cc32)CC1 (stereo not drawn) [Compound 4, 11-(4-Methylpiperazino)-6,11-dihydrodibenz[b,e]oxepin-2-carboamide] | 10 | > 100 | > 300 |  |
| CCOC(=O)OC(C)OC(=O)c1ccc2c(c1)C(SCCN(C)C)c1ccccc1CO2 (stereo not drawn) [Compound 20, 11-(N,N--dimethylaminoethyl)thio-6,11-dihydrodibenz[b,e]oxepin-2-carboxylic acid (1-ethoxycarbonyloxy)ethyl ester] | 0.1 | > 100 | > 300 |  |
| CN1CCN(C2c3ccccc3COc3ccc(C(=O)O)cc32)CC1 (stereo not drawn) [Compound 21, 11-(4-Methylpiperazino)-6,11-dihydrodibenz[b,e]oxepin-2-carboxylic acid dihydrochloride.1/4H2 O] |  | > 100 | > 300 | 1 |
| CN(C)CCSC1c2ccccc2COc2ccc(C(=O)O)cc21 (stereo not drawn) [Compound 22, 11-(N,N--dimethylaminoethyl)thio-6,11-dihydrodibenz[b,e]oxepin-2-carboxylic acid hydrochloride.1/2H2 O] |  | > 100 | > 300 | 0.1 |
| CN(C)CCNC1c2ccccc2COc2ccc(C(N)=O)cc21 (stereo not drawn) [Compound 14, 11-(N,N--dimethylaminoethyl)amino-6,11-dihydrodibenz[b,e]oxepin-2-carboamide] | 1 | > 100 | 300 |  |
| CN1CCN(C2c3ccccc3COc3ccc(C(=O)O)cc32)CC1 (stereo not drawn) [Compound 3, 11-(4-Methylpiperazino)-6,11-dihydrodibenz[b,e]oxepin-2-carboxylic acid diacetate.2H2 O] | 1 | > 100 | > 300 |  |
| CCOC(=O)c1ccc2c(c1)C(NC1CN3CCC1CC3)c1ccccc1CO2 (stereo not drawn) [Compound 17, 11-(3-Quinuclidinyl)amino-6,11-dihydrodibenz[b,e]oxepin-2-carboxylic acid ethyl ester] | 0.1 | > 100 | > 300 |  |
| CCOC(=O)c1ccc2c(c1)C(SCCN(C)C)c1ccccc1CO2 (stereo not drawn) [Compound 7, 11-(N,N--dimethylaminoethyl)thio-6,11-dihydrodibenz[b,e]oxepin-2-carboxylic acid ethyl ester] | 10 | > 100 | > 300 |  |
| CN(C)CCSC1c2ccccc2COc2ccc(C(=O)O)cc21 (stereo not drawn) [Compound 8, 11-(N,N--dimethylaminoethyl)thio-6,11-dihydrodibenz[b,e]oxepin-2-carboxylic acid acetate] |  | > 100 | > 300 | 10 |
| CN1CCN(C2c3ccccc3COc3ccc(-c4nnn[nH]4)cc32)CC1 (stereo not drawn) [Compound 6, 11-(4-Methylpiperazino)-2-(5-tetrazolyl)-6,11-dihydrodibenz[b,e]oxepin Na salt] | 10 | > 100 | > 300 |  |
| CCOC(=O)OC(C)OC(=O)c1ccc2c(c1)C(N1CCN(C)CC1)c1ccccc1CO2 (stereo not drawn) [Compound 19, 11-(4-Methylpiperazino)-6,11-dihydrodibenz[b,e]oxepin-2-carboxylic acid (1-ethoxycarbonyloxy)ethyl ester] | 1 | > 100 | > 300 |  |
| CCOC(=O)c1ccc2c(c1)C(OCCN(C)C)c1ccccc1CO2 (stereo not drawn) [Compound 11, 11-(N,N--dimethylaminoethyl)oxy-6,11-dihydrodibenz[b,e]oxepin-2-carboxylic acid ethyl ester] | 1 | > 100 | > 300 |  |
| CN(C)CCSC1c2ccccc2COc2ccc(C#N)cc21 (stereo not drawn) [Compound 10, 11-(N,N--dimethylaminoethyl)thio-6,11-dihydrodibenz[b,e]oxepin-2-carbonitrile] | 1 | > 100 | > 300 |  |
